{"source": "paper PMC10015785", "about": "“A proteasomal β5 subunit of Haemonchus contortus with a role in the growth, development and life span” (Parasites & Vectors, 2023)", "biological_target": "T1, proteasomal β5 subunit (Hc-PBS-5) (Haemonchus contortus, UniProt A0A7I5E5W5)", "T1 sequence (A0A7I5E5W5 65-284)": "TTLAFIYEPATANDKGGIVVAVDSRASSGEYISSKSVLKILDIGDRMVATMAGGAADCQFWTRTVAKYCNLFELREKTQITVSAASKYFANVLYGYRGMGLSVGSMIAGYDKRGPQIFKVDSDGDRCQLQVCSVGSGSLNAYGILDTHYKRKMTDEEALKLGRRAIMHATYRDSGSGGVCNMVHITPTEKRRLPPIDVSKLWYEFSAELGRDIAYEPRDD", "assay_type": "biochemical", "data": [{"smiles": "CC(C)C[C@H](NC(=O)[C@H](Cc1ccccc1)NC(=O)c1cnccn1)B(O)O", "note": "[bortezomib]", "values": [{"measurement": "IC50", "result": 0.622, "unit": "µM"}]}]}
